Test results from patent US20230097883A1, “ERGOTHIONEINE PET COMPOUNDS AND METHODS OF USE THEREOF” (VANDERBILT UNIVERSITY, priority 2021, published 2023).
“Also recorded” adds a separate entry of the source.

Tests used:
[1] = Nickel assay: 2D-HPLC with nickel HisTrap column and His-tag antibodies; assay type: binding
Experimental: In principle, nickel is a transition metal like Fe, Cu and Zn. The nickel column can immobilize hexahistidine-tag (His-tag) recombinant proteins, such as recombinant antibodies harboring a His tag (His-Abs). In our experimental design, nickel forms a substantial coordination equilibrium with histidines via the imidazole ring structures to form a stable metal/ligand complex. This assay uses two different buffer reservoirs, a wash buffer (PBS) and an elution buffer (PBS containing 50 mM imidazole). To remove the His-Abs (14 KDa) from the nickel column, the washing buffer was switched to the elution buffer and the His-Abs dislodged from the column were detected by the 2D-HPLC (FIG. 3.1C, left). In a different phase of the experiment, the His-Abs solution was spiked with ERGO (14.5 mM) prior to injection into the HPLC system. […] The integrity of the eluted His-Abs was collected and confirmed by orbit trap mass spectrometry.
ERGO's metal-binding affinity was tested via a 2D-HPLC equipped with a nickel-based HisTrap HP column (Cytiva, Marlborough, Mass., USA). The 2D-HPLC was performed with a Hitachi LaChrom Elite L-2455 Diode Array Detector linked to a Hitachi L-2130 pump (Hitachi High-Technologies, Corp., Tokyo, Japan). […]

glucose metabolism = experiment: [18F]FDG PET imaging of glucose metabolism after ERGO treatment; assay type: in vivo, mouse; conditions: 6-month-old 5XFAD, ERGO 6 doses each 50 mg/Kg during 2 weeks, versus non-treated 5XFAD, n=3
Experimental: The brain consumes a significant amount of glucose, approximately 25% of the body's glucose. It is well known that glucose metabolism is diminished in the early onset of AD. Therefore, [^18F]FDG PET imaging to assess glucose levels could be used for AD diagnosis. For this purpose, three cohorts of age-matched mice (6-month-old, n=3 for each cohort), including WT, non-treated 5XFAD and ERGO-treated 5XFAD (6 doses, each 50 mg/Kg during the course of 2 weeks) were studied. Afterward, animals were injected with [^18F]FDG probe (15 MBq, 100 μL/mouse) and underwent […] dynamic PET scans and CT scans.
The dynamic acquisition was divided into twelve 5-second frames, four 60-second frames, five 120-second frames, three 5-min frames, and six 10-min scans. The data from all possible lines of response (LOR) were saved in the list mode raw data format. The raw data were then binned into 3D sinograms with a span of 3 and ring difference of 47. The images were reconstructed into transaxial slices (128×128×159) with voxel sizes of 0.0815×0.0815×0.0796 cm^3, using the MAP algorithm with 16 subsets, 4 iterations, and a beta of 0.0468. For anatomical co-registration, immediately following the PET scans, the mice received a CT scan in a NanoSPECT/CT (Mediso, Wash. D.C.) at an X-ray beam intensity of 90 mAs and x-ray peak voltage of 45 kVp. […]

[2] = Ferrous ion chelating (FIC) assay; assay type: biochemical; conditions: increasing ERGO concentrations
From the text: We also assessed ERGO's transition metal scavenging using cupric ion chelating (CIC) and ferrous ion chelating (FIC) assays. In these experiments, pyrocatechol violet or ferrozine forms a complex with free Cu(II) or Fe(II), respectively, resulting in a chromophore with a strong absorbance signal. The pyrocatechol violet-COI) complex has an absorbance lambda max (λmax) at 630 nm, and ferrozine-Fe(II) has a λmax at 562 nm. In the presence of ERGO, fewer free metals are available to form these complexes, resulting in less absorbance.
The iron chelating activity of ERGO was determined using a FIC assay, which was obtained from Zen-Bio Inc. (Durham, N.C.). The assay was done on a 96-well plate with triplicated samples, standards, background, and max absorbance wells. All of the assay absorbance values were subtracted from the average background absorbance, comprising of water and assay buffer (1:1). Maximal absorbance was measured by averaging the absorbance values of 3 wells containing only FeSO4 and assay buffer. […] The assaying plate was incubated at room temperature for 10 minutes then the plate was read at 562 nm using a Biotek Synergy 4 plate reader. Absorbances were averaged, and the background absorbance was subtracted from the sample and maximum averages (Abstest and Absmax). […]

[3] = Ex-vivo cut-and-count whole-body biodistribution of I.V.-injected [11C]ERGO in WT mice; design: species or system mouse; conditions: pharmacokinetic study

Row | SMILES | elution of His-tag antibodies from the nickel column in the presence of ERGO ([1]; His-Abs solution spiked with ERGO 14.5 mM, PBS wash buffer) | elution of His-tag camelid antibodies from the nickel column in the presence of ERGO ([1]; antibody injected with addition of ERGO 50 nM, PBS mobile phase) | glucose levels in the brain ([18F]FDG uptake, SUV) (glucose metabolism) | absorbance signal of ferrozine-Fe(II) complex [2] | time after injection at which the concentration in the serum started to decrease [3]
1 | C[N+](C)(C)[C@@H](Cc1c[nH]c(=S)[nH]1)C(=O)[O-] [ERGO, L-ergothioneine] | eluted from the nickel column immediately by the wash buffer; also recorded: washed out immediately | Right at the beginning of the run, His-tag camelid antibodies were eluted | significantly elevated | decreased as the concentrations of ERGO increased in a dose-dependent fashion | 
2 | C[N+](C)([11CH3])[C@@H](Cc1c[nH]c(=S)[nH]1)C(=O)[O-] [[^11C]ERGO] |  |  |  |  | 10 min
